These results are taken from US20200085791A1, “[(PHENYLSULFONYL)OCTAHYDRO-EPIMINOISOINDOL-YL](1H-1,2,3-TRIAZOL-5-YL)METHANONES” (Bayer Pharma Aktiengesellschaft, priority 2016, published 2020).

In this test the target is T1, recombinant human AKR1C3 (Aldo-keto reductase family 1 member C3) (Homo sapiens, UniProt P42330).
T1 construct: GST (cleaved yes); made in house; host or cells: E. coli
T1 sequence (P42330 1-323): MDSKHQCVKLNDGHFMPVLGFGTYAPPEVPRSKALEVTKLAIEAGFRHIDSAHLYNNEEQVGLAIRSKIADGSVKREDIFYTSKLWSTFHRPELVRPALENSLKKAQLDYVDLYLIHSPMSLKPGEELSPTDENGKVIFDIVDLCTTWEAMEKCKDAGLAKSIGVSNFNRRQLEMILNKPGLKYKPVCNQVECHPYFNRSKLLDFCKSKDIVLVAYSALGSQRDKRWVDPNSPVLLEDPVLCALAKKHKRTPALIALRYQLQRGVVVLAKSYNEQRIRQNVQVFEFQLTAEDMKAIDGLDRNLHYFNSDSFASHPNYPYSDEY
Put plainly: In Vitro Assay 1: AKR1C3-inhibitory activity (Coumberone to Coumberol fluorescence assay). To be noted: recombinant enzyme, Coumberone 0.3 μM, NADPH 10 μM, 15 min pre-incubation, 4-parameter fit; average or median values. It is filed as biochemical. In short, it runs like this:
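Recombinant human AKR1C3 (E. coli-expressed GST fusion, GST removed), typically ~1 nM, was preincubated 15 min with compound in 50 mM potassium phosphate pH 7 with 1 mM DTT. The reaction ran typically 90 min with 10 μM NADPH and 0.3 μM Coumberone (final), then was stopped with 1 μM EM-1404. Coumberol fluorescence (ex 380/em 520 nm) was normalized to no-inhibitor and no-enzyme controls.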
The IC50 is the point on the concentration scale where inhibition reaches its midpoint. Turning to `O=C(c1c[nH]nn1)N1C[C@@H]2[C@H](C1)[C@@H]1CC[C@H]2N1S(=O)(=O)c1cccc(Cl)c1F` [Example 6, {(3aR,4S,7R,7aS)-8-[(3-chloro-2-fluorophenyl)sulfonyl]octahydro-2H-4,7-epiminoisoindol-2-yl}(1H-1,2,3-triazol-4-yl)methanone], the half-maximal inhibitory concentration (IC50) worked out at 0.031 µM. Regarding `O=C(c1cnn[nH]1)N1C[C@@H]2[C@H](C1)[C@@H]1CC[C@H]2N1S(=O)(=O)c1ccc(F)cc1` [Example 22, {(3aR,4S,7R,7aS)-8-[(4-fluorophenyl)sulfonyl]octahydro-2H-4,7-epiminoisoindol-2-yl}(1H-1,2,3-triazol-5-yl)methanone], the half-inhibitory concentration (IC50) turned out to be 0.113 µM. As to `O=C(c1c[nH]nn1)N1C[C@@H]2[C@H](C1)[C@@H]1CC[C@H]2N1S(=O)(=O)c1cccc(C(F)(F)F)c1` [Example 2, 1H-1,2,3-triazol-4-yl[(3aR,4S,7R,7aS)-8-{[3-(trifluoromethyl)phenyl]sulfonyl}octahydro-2H-4,7-epiminoisoindol-2-yl]methanone], the IC50 was determined as 0.061 µM. For `O=C(c1cnn[nH]1)N1C[C@@H]2[C@H](C1)[C@H]1CC[C@@H]2N1S(=O)(=O)c1cccc2nonc12` [Example 46, [(3aR,4R,7S,7aS)-8-(2,1,3-benzoxadiazol-4-ylsulfonyl)octahydro-2H-4,7-epiminoisoindol-2-yl](1H-1,2,3-triazol-5-yl)methanone], the concentration for half-maximal inhibition (IC50) is 0.059 µM.
